Measured values as given in patent publication US4959361A, “Triazolo(4,3-A)(1,4)benzodiazepines and thieno (3,2-F)(1,2,4)triazolo(4,3-A)(1,4)diazepine compounds which have useful activity as platelet activating factor (PAF) antagonists” (Hoffmann-La Roche Inc., priority 1988, dated 1990).
Read-outs that look alike come from different tables or passages of the source.

Experiments:
[1] = target: T1, PAF-binding, dog platelets (Canis lupus familiaris, UniProt A0A8I3NSH0); experiment: PAF binding assay (radiolabelled H-PAF, washed dog platelets); conditions: 10 minutes at room temperature, read-out: PAF-binding IC-50
T1 construct: dog platelets; from tissue; host or cells: washed platelets from citrated dog blood
T1 sequence (A0A8I3NSH0 1-343): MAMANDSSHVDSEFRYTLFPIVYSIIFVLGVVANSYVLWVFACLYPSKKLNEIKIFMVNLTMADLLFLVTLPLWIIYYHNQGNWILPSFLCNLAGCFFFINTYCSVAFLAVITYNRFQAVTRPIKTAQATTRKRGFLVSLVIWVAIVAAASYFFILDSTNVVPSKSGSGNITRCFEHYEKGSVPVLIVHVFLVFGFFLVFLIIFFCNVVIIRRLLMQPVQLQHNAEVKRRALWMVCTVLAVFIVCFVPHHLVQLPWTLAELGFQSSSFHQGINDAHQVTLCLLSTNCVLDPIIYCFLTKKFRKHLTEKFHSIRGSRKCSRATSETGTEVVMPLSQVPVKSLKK
Procedure: The binding assay was done in […] polyethylene microcentrifuge tubes (Beckman) containing 50 μl of an oil mixture of 2 parts Siliconol AR200 (Serva): 1 part Silicone Fluid (Arthur H. Thoma). Buffer, standards, or analogs (150 μl total volume) were added to the tubes. Radiolabelled H-PAF (50 μl) was then added to the tubes. The reaction was started by the addition of 50 μl of dog platelets (2×10^7 platelets). The tubes were capped, inverted several times to mix, and incubated for 10 minutes at room temperature. The platelets were separated from the incubation mixture by centrifuging 1 minute in a Beckman Microfuge B centrifuge. The tip of the microfuge tube was cut off, and the platelets were washed out of the tip with 200 μl of 50% methanol (Burdick and Jackson). Aquasol (NEN, 10 ml) was added and the radioactivity in the samples was determined using an LS 8100 Beckman liquid scintillation counter linked to a Techtran tape recorder Data was processed through an in-house computer system. Alternatively, radioactivity was determined using a Searle Mark III liquid scintillation counter linked to a Iso-Data microprocessor.
(b) preparation of platelets
Blood was collected from anesthesized or unanesthesized dogs into 50 ml plastic centrifuge tubes containing 3.8% sodium citrate as the anticoagulant (1 volume of citrate/9 volumes of blood). The red cells were removed by centrifugation for 15 minutes at 600 rpm (100-125 g) at room temperature. An aliquot of the supernatant platelet rich plasma (PRP) was saved for cell counting and the remainder was acidified to pH 6.5 with 0.15M citric acid. The platelet pellet was obtained after a 10 minute centrifugation at 2000 rpm (1000 g) at room temperature. Washed platelets were prepared by resuspending the platelet pellet once with pBS containing 1 mM EDTA, centrifuging as noted, and then resuspending the platelets in 0.1% BSA pBS. An aliquot of the washed platelets was counted. Platelets used for binding assays were diluted to 2×10^7 platelets/assay tube (4×10^8 platelets/ml). platelet countinq was done using a Royco Cell-Crit 921.

[2] = system: PAF Induced Bronchoconstriction; experiment: PAF induced bronchoconstriction assay, intravenous testing; assay type: in vivo, guinea pig; conditions: for ED50: Cavia porcellus, iv, 1 min, i.v., 1 minute pretreatment, PAF 1 μg/kg i.v., read-out: Bronchoconstriction ID-50 i.v.; for % inhibition of bronchoconstriction: Table II (*), at 0. mg/kg i.v. (dose digit cut off)
Procedure: Male animals (Hartlet Strain, 400-500 g were anesthetized with urethane (2 g/kg, i.p.). Each animals' trachea was cannulated and the guinea pigs were respirated using a Harvard small animal rodent respirator (3.0 cc stroke volume, 40 breaths per min.). Tracheal pressure was recorded from a cannula inserted in the trachea and connected to a Statham pressure transducer.
The jugular vein was cannulated for administering compounds. Spontaneous breathing was arrested with succinylcholine (1.2 mg/kg, i.v.) administered 2 minutes prior to intravenous injection of platelet activating factor PAF).
For the intravenous testing, the guinea pig is given a 1-minute pretreatment with propranolol at a dose of 0.1 mg/kg intravenously. The test compound is administered with a 1 minute pretreatment prior to intravenous challenge with PAF. The animal is then challenged with a 1 μg/kg intravenous dose of PAF and the change in tracheal pressure is measured.
The change in tracheal pressure is determined by subtracting the steady state baseline achieved after administration of succinylcholine from the peak broncho. constriction seen after challenge with PAF. The mean is calculated for each test compound and compared to the mean of the control animals to give the percent inhibition of bronchoconstriction. The standard error is calculated as the standard error of the mean.

[3] = system: PAF Induced Bronchoconstriction; experiment: PAF induced bronchoconstriction assay, oral testing; assay type: in vivo, guinea pig; conditions: Cavia porcellus, 2 hr; for ED50: p.o., read-out: Bronchoconstriction ID-50 p.o. 2 hr; for inhibition in vivo at 3 mg/kg: Table II (*), 3 mg/kg p.o.
[4] = Table I, triazolothienodiazepines
[5] = po, Table I, at a dose of 0.3 mg/kg p.o.
[6] = Table II, triazolobenzodiazepines
[7] = Table II (**), at an oral dose of 0.3 mg/kg

| SMILES | IC50 [1, 4] [µM] | ED50 ([2]; Table I) [mg/kg] | IC50 [1, 6] [µM] | further results |
| --- | --- | --- | --- | --- |
| Cc1nnc2n1-c1sc(C#CCN3C(=O)c4cccc5cccc(c45)C3=O)cc1C(c1ccccc1Cl)=NC2 | 0.012 | < 0.1 |  | ED50 ([3]; po, Table I): 0.025 mg/kg |
| Cc1nnc2n1-c1sc(C#CCN3C(=O)C(=O)c4ccccc43)cc1C(c1ccccc1Cl)=NC2 | 0.007 | < 0.1 |  | ED50 ([3]; po, Table I): 0.06 mg/kg |
| Cc1nnc2n1-c1sc(C#CCN3C(=O)c4cccc5cccc3c45)cc1C(c1ccccc1Cl)=NC2 | 0.005 | < 0.1 |  | ED50 ([3]; po, Table I): 0.042 mg/kg |
| Cc1nnc2n1-c1sc(C#C[Si](C)(C)C)cc1C(c1ccccc1Cl)=NC2 | 0.02 | 0.28 |  |  |
| C#Cc1cc2c(s1)-n1c(C)nnc1CN=C2c1ccccc1Cl | 0.01 | 0.02 |  | inhibition in vivo at 0.3 mg/kg [3, 5]: 17% |
| Cc1nnc2n1-c1sc(C#CCn3cnc4ccccc43)cc1C(c1ccccc1Cl)=NC2 | 0.0045 |  |  | ED50 ([3]; po, Table I): 0.12 mg/kg |
| Cc1nnc2n1-c1sc(C#CCN3C(=O)Cc4ccccc43)cc1C(c1ccccc1Cl)=NC2 | 0.003 |  |  | ED50 ([3]; po, Table I): 0.05 mg/kg |
| Cc1nnc2n1-c1sc(C#CCN3C(=O)c4ccccc4S3(=O)=O)cc1C(c1ccccc1Cl)=NC2 | 0.004 |  |  | inhibition in vivo at 0.3 mg/kg [3, 5]: 27% |
| Cc1nnc2n1-c1sc(C#CCn3nc4ccccn4c3=O)cc1C(c1ccccc1Cl)=NC2 | 0.011 |  |  | inhibition in vivo at 0.3 mg/kg [3, 5]: 79% |
| Cc1nnc2n1-c1sc(C#CCn3ncc4ccccc43)cc1C(c1ccccc1Cl)=NC2 | 0.001 | 0.002 |  | ED50 ([3]; po, Table I): 0.015 mg/kg |
| Cc1nnc2n1-c1sc(C#CCN3C(=O)COc4ccccc43)cc1C(c1ccccc1Cl)=NC2 | 0.0007 | 0.007 |  | ED50 ([3]; po, Table I): 0.019 mg/kg |
| Cc1nnc2n1-c1sc(C#CCn3cnc4c3c(=O)n(C)c(=O)n4C)cc1C(c1ccccc1Cl)=NC2 | 0.02 | 0.043 |  | inhibition in vivo at 0.3 mg/kg [3, 5]: 27% |
| Cc1nnc2n1-c1sc(C#CCn3c(=O)c4c(ncn4C)n(C)c3=O)cc1C(c1ccccc1Cl)=NC2 | 0.007 | 0.018 |  | inhibition in vivo at 0.3 mg/kg [3, 5]: 38% |
| Cc1nnc2n1-c1sc(C#CCOc3ccccc3)cc1C(c1ccccc1Cl)=NC2 |  | 0.006 |  | inhibition in vivo at 0.3 mg/kg [3, 5]: 67% |
| Cc1c(C)c2c(c(C)c1O)CCC(C)(C#Cc1cc3c(s1)-n1c(C)nnc1CN=C3c1ccccc1Cl)O2 (centres unmarked) | 0.045 | 0.027 |  |  |
| Cc1nnc2n1-c1sc(C#Cc3ccccc3)cc1C(c1ccccc1Cl)=NC2 | 0.1 | > 0.1 |  |  |
| Cc1nnc2n1-c1sc(C#CCn3c(=O)c4ccccc4c4ccccc43)cc1C(c1ccccc1Cl)=[N+]([O-])C2 | 0.015 | 0.017 |  |  |
| Cc1nnc2n1-c1sc(C#CCn3c(=O)c4ccccc4c4ccccc43)cc1C(c1ccccc1Cl)=NC2O (centres unmarked) | 0.025 | 0.022 |  |  |
| Cc1nnc2n1-c1sc(C#CCn3c(=O)c4ccccc4c(=O)c4ccccc43)cc1C(c1ccccc1Cl)=NC2 |  | 0.008 |  | ED50 ([3]; po, Table I): 0.026 mg/kg |
| Cc1nnc2n1-c1sc(C#CCN3C(=O)COc4cc(F)ccc43)cc1C(c1ccccc1Cl)=NC2 |  | 0.005 |  | ED50 ([3]; po, Table I): 0.016 mg/kg |
| Cc1nnc2n1-c1sc(C#CCN3CCc4ccccc4C3=O)cc1C(c1ccccc1Cl)=NC2 |  | 0.008 |  | ED50 ([3]; po, Table I): 0.016 mg/kg |
| Cc1nnc2n1-c1sc(C#CCn3c(=O)c4cc(Cl)ccc4c4ccc(Cl)cc43)cc1C(c1ccccc1Cl)=NC2 |  | 0.008 |  |  |
| Cc1nnc2n1-c1sc(C#CCn3c4ccccc4c(=O)c4ccccc43)cc1C(c1ccccc1Cl)=NC2 |  | 0.01 |  |  |
| Cc1nnc2n1-c1ccc(C#CCN3C(=O)c4cccc5cccc(c45)C3=O)cc1C(c1ccccc1Cl)=NC2 |  |  |  | inhibition in vivo at 3 mg/kg ([3]; po): 99% |

| SMILES | IC50 [1, 4] [µM] | ED50 ([2]; Table I) [mg/kg] | IC50 [1, 6] [µM] | further results |
| --- | --- | --- | --- | --- |
| Cc1nnc2n1-c1ccc(C#CCn3c(=O)oc4ccccc43)cc1C(c1ccccc1Cl)=NC2 |  |  | 0.02 | inhibition in vivo at 3 mg/kg ([3]; po): 91% |
| Cc1nnc2n1-c1ccc(C#CCn3cnc4ccccc43)cc1C(c1ccccc1Cl)=NC2 |  |  | 0.015 |  |
| Cc1nnc2n1-c1ccc(C#CCN3C(=O)CSc4ccccc43)cc1C(c1ccccc1F)=NC2 |  |  |  | % inhibition of bronchoconstriction [2]: 99%; inhibition in vivo at 3 mg/kg ([3]; po): 99% |
| Cc1nnc2n1-c1ccc(C#CCN3C(=O)COc4ccccc43)cc1C(c1ccccc1F)=NC2 |  |  |  | % inhibition of bronchoconstriction [2]: 100%; inhibition in vivo at 3 mg/kg ([3]; po): 98% |
| Cc1nnc2n1-c1ccc(C#CCn3cnc4ccccc4c3=O)cc1C(c1ccccc1F)=NC2 |  |  | 0.07 |  |
| Cc1nnc2n1-c1ccc(C#CCn3c(C)nc4ccccc4c3=O)cc1C(c1ccccc1F)=NC2 |  |  | 0.05 |  |
| Cc1nnc2n1-c1ccc(C#CCN3C(=O)C(=O)c4ccccc43)cc1C(c1ccccc1Cl)=NC2 |  |  | 0.35 | % inhibition of bronchoconstriction [2]: 100% |
| Cc1nnc2n1-c1ccc(C#CCN3C(=O)Cc4ccccc43)cc1C(c1ccccc1Cl)=NC2 |  |  | < 0.01 |  |
| Cc1nnc2n1-c1ccc(C#CCN3C(=O)CN(C)C(=O)c4ccccc43)cc1C(c1ccccc1F)=NC2 |  |  | 0.16 |  |
| Cc1nnc2n1-c1ccc(C#CCOc3cccnc3)cc1C(c1ccccc1Cl)=NC2 |  |  | 0.13 | ED50 ([2]; Table II): 0.005 mg/kg |
| Cc1nnc2n1-c1ccc(C#CCN3C(=O)C4CCCN4C3=O)cc1C(c1ccccc1F)=NC2 (centres unmarked) |  |  | 0.2 | inhibition in vivo at 3 mg/kg ([3]; po): 99% |
| Cc1nnc2n1-c1ccc(C#CCN3C(=O)c4ccccc4S3(=O)=O)cc1C(c1ccccc1F)=NC2 |  |  | 0.15 |  |
| Cc1nnc2n1-c1ccc(C#CCN3Cc4ccccc4C3=O)cc1C(c1ccccc1F)=NC2 |  |  | 0.225 | inhibition in vivo at 3 mg/kg ([3]; po): 100% |
| Cc1nnc2n1-c1ccc(C#CCn3nc4ccccn4c3=O)cc1C(c1ccccc1F)=NC2 |  |  | 0.35 | inhibition in vivo at 3 mg/kg ([3]; po): 43% |
| Cc1nnc2n1-c1ccc(C#CCn3ncc4ccccc43)cc1C(c1ccccc1F)=NC2 |  |  | < 0.01 |  |
| Cc1nnc2n1-c1ccc(C#CCN3C(=O)C4CC=CCC4C3=O)cc1C(c1ccccc1F)=NC2 (centres unmarked) |  |  | 0.05 | inhibition in vivo at 3 mg/kg ([3]; po): 99% |
| Cc1nnc2n1-c1ccc(C#CCOc3ccccc3)cc1C(c1ccccc1Cl)=NC2 |  |  | < 0.01 | inhibition in vivo at 0.3 mg/kg [3, 7]: 37% |
| Cc1nnc2n1-c1ccc(C#CCN3C(=O)Cc4ccccc43)cc1C(c1ccccc1F)=NC2 |  |  | < 0.01 | inhibition in vivo at 0.3 mg/kg [3, 7]: 32% |
| Cc1nnc2n1-c1ccc(C#CCn3ccc4ccccc43)cc1C(c1ccccc1F)=NC2 |  |  |  | ED50 ([3]; po, Table II): > 0.3 mg/kg |
| Cc1nnc2n1-c1ccc(C#CCn3c(=O)c4c(ncn4C)n(C)c3=O)cc1C(c1ccccc1F)=NC2 |  |  |  | ED50 ([3]; po, Table II): > 0.3 mg/kg |
| Cc1nnc2n1-c1ccc(C#CCCN3C(=O)c4ccccc4C3=O)cc1C(c1ccccc1F)=NC2 |  |  |  | inhibition in vivo at 0.3 mg/kg [3, 7]: 54% |
| O=C1c2ccccc2C(=O)N1CC#Cc1ccc2c(c1)C(c1ccccc1F)=NCc1nnc(C(F)(F)F)n1-2 |  |  |  | ED50 ([2]; Table II): 0.44 mg/kg; ED50 ([3]; po, Table II): 0.3 mg/kg |
| Cc1nnc2n1-c1ccc(C#CCN3C(=O)CCc4ccccc43)cc1C(c1ccccc1F)=N[C@H]2C |  |  | 0.006 | ED50 ([2]; Table II): 0.008 mg/kg |
